These results are taken from US20250082763A1, “COMBINATION DRUG FOR TREATING TRIPLE-NEGATIVE BREAST CANCER” (HINOVA PHARMACEUTICALS INC., priority 2022, published 2025).

What all share (format): cell-based
The test system of assay [1] is MDA-MB-453 cells. Briefly: Combination with chemotherapeutic drug Paclitaxel, proliferation of MDA-MB-453 cells, Combination Index. The conditions noted are these: molar ratio to Paclitaxel 20:1-5000:1, 7 days. On the procedure:
Triple negative breast cancer MDA-MB-453 cells in logarithmic growth stage were inoculated into a 96-well plate at a concentration of 4×10^3 cells/well, and then incubated in an incubator at 37° C., 5% CO2, and saturated humidity for 24 h. To the negative control wells, were added RPMI 1640 cell culture medium containing 10% fetal bovine serum in the same volume as the drug. After cultured for 24 h, to the 96-well plate, were sequentially added AR PROTACs compounds 279, 281, 282, ARV-110 and chemotherapeutic drug Paclitaxel, respectively.
(§1) After adding the drugs and co-incubating for 7 days, 10 μL of CCK-8 was added to each well, and then the plate was further cultured for 2 h. The absorbance value (OD) of each well was measured using a microplate reader at a wavelength of 450 nm. The survival rate was calculated using Prism software, the relative survival rate=(OD value of drug well/OD value of control well)×100%. Alternatively, 100 μL of medium was removed from each well, and then 50 μL of CTG was added. The plate was shaken in the dark for 2 min, allowed to stand for 10 min, and then measured using a microplate reader in Luminescence mode. Prism software was used to calculate the survival rate, the relative survival rate=(the RLU value of drug well/the RLU value of control well)×100%.

The test system of assay [2] is MDA-MB-453 cells. Briefly: Combination with PI3K inhibitor Alpelisib, proliferation of MDA-MB-453 cells, Combination Index. The conditions noted are these: molar ratio to Alpelisib 1:27-9:1, 7 days. On the procedure: Triple negative breast cancer MDA-MB-453 cells in logarithmic growth stage were inoculated into a 96-well plate at a concentration of 4×10^3 cells/well, and then incubated in an incubator at 37° C., 5% CO2, and saturated humidity for 24 h. To the negative control wells, were added RPMI 1640 cell culture medium containing 10% fetal bovine serum in the same volume as the drug. After cultured for 24 h, to the 96-well plate, were sequentially added AR PROTACs compounds 279, 281, 282, ARV-110, ARV-766 and PI3K inhibitor Alpelisib, respectively.
as §1, with “addition of” for “adding”, “co-incubation” for “co-incubating”

The subject of assay [3] is MDA-MB-453 cells. Briefly: Combination with PI3K inhibitor Idelalisib, proliferation of MDA-MB-453 cells, Combination Index. The conditions noted are these: molar ratio to Idelalisib 1:270-1:3.333, 7-10 days. On the procedure: Triple negative breast cancer MDA-MB-453 cells in logarithmic growth stage were inoculated into a 96-well plate at a concentration of 4×10^3 cells/well, and then incubated in an incubator at 37° C., 5% CO2, and saturated humidity for 24 h. To the negative control wells, were added RPMI 1640 cell culture medium containing 10% fetal bovine serum in the same volume as the drug. After cultured for 24 h, to the 96-well plate, were sequentially added AR PROTACs compounds 279, 281, 282, ARV-110, ARV-766 and PI3K inhibitor Idelalisib, respectively.
as §1, with “7-10” for “7”

Assay [4] concerns HCC1937. As to the kind of experiment: Antiproliferation, CellTiter-Glo, 5 days, HCC1937. The conditions noted are these: Homo sapiens, 120 h, HCC1937, AR− TNBC. The method, then: (§2) For MDA-MB-453, MFM-223, SUM159PT, MDA-MB-468, and HCC1937, 4,000, 3,000, 1,000, 3,000, and 3,000 cells were plated per well in 96-well microplates (Corning Inc), respectively. Cells were treated with serial dilutions of tested compounds with the maximum working concentration of 10 μM. Cell survival was measured 5 days later using a CellTiter-Glo luminescent cell viability assay kit (Promega Corporation). Luminescence was recorded by FLUOstar Omega microplate reader (BMG Labtech). Half maximal inhibitory concentration (IC50) was determined with GraphPad Prism using baseline correction (by normalizing to dimethyl sulfoxide (DMSO) control)
On the technique in general: ATP-based viability assays read luminescence as a measure of living cells.

Assay [5] deals with MDA-MB-453 cells. Briefly: Combination with PI3K inhibitor Duvelisib, proliferation of MDA-MB-453 cells, Combination Index. The conditions noted are these: molar ratio to Duvelisib 1:30-1:1.111, 7-10 days. On the procedure:
Triple negative breast cancer MDA-MB-453 cells in logarithmic growth stage were inoculated into a 96-well plate at a concentration of 4×10^3 cells/well, and then incubated in an incubator at 37° C., 5% CO2, and saturated humidity for 24 h. To the negative control wells, were added RPMI 1640 cell culture medium containing 10% fetal bovine serum in the same volume as the drug. After cultured for 24 h, to the 96-well plate, were sequentially added AR PROTACs compounds 279, 281, 282, ARV-110 and PI3K inhibitor Duvelisib, respectively.
as §1, with “7-10” for “7”

Assay [6] deals with MDA-MB-468. As to the kind of experiment: Antiproliferation, CellTiter-Glo, 5 days, MDA-MB-468. The conditions noted are these: Homo sapiens, 120 h, MDA-MB-468, AR− TNBC. On the procedure: as §2

In general, IC50 refers to the point on the concentration scale where inhibition reaches its midpoint. A low value points to greater potency.

Regarding `N#Cc1ccc(O[C@H]2CC[C@H](NC(=O)c3ccc(N4CCC(CN5CCN(c6cc7c(cc6F)C(=O)N(C6CCC(=O)NC6=O)C7=O)CC5)CC4)nn3)CC2)cc1Cl` (stereo partly drawn) [ARV-110, reference compound], the “effect of the combination with Paclitaxel on inhibiting proliferation (CI<1 = synergistic)” value in assay [1] is given as “synergistic effect”. The “effect of the combination with Alpelisib on inhibiting proliferation (CI<1 = synergistic)” value in assay [2] was “synergistic effect”. Also, the “effect of the combination with Idelalisib on inhibiting proliferation (CI<1 = synergistic)” value in assay [3] is “synergistic effect”. Also, the IC50 in assay [4] and in assay [6] was greater than 10 µM each time. In assay [5], the “effect of the combination with Duvelisib on inhibiting proliferation (CI<1 = synergistic)” value is listed as “synergistic effect”.

On to `N#Cc1ccc(O[C@H]2CC[C@H](NC(=O)c3cnc(N4CCC(CN5CCC6(CC5)CN(c5ccc7c(c5)C(=O)N(C5CCC(=O)NC5=O)C7=O)C6)CC4)nn3)CC2)cc1Cl` (stereo partly drawn) [Compound 279], for which the “effect of the combination with Paclitaxel on inhibiting proliferation (CI<1 = synergistic)” value in assay [1] is “synergistic effect”. The “effect of the combination with Alpelisib on inhibiting proliferation (CI<1 = synergistic)” value in assay [2] is on record as “synergistic effect”. Further, in assay [3], the “effect of the combination with Idelalisib on inhibiting proliferation (CI<1 = synergistic)” value is “synergistic effect”. Also, the IC50 in assay [4] and in assay [6] was greater than 10 µM in each case. Also, in assay [5], the “effect of the combination with Duvelisib on inhibiting proliferation (CI<1 = synergistic)” value was “synergistic effect”.
